# Results as given in patent US5710179A, “Antitumor agent” (priority 1995, dated 1998).
# Structures can show the parent of a compound that is named as a salt.
# Legend:
# Meth A sarcoma = assay: Antitumor activity on mouse with carcinoma (Meth A sarcoma, i.p., 40 days); type: in vivo, BALB/c male mice; conditions: for Average day surviving: 40 days, control 28.1 ± 0.2; for Prolongation percentage of life (T/C %): control 100; for Number surviving after 40 days: group of 10, control 0
# Protocol: About 1×10^6 cells/mouse of Meth A sarcoma was intraperitoneally injected into 8-week-old BALB/c male mice. From the next day after the administration, mice in a group of 10 were intraperitoneally injected twice a week with 0.2 ml of a physiological saline containing 0.0005, 0.005, 0.05 or 0.5 μg of any one of the compounds 1-5, and observed for 40 days. As a control, 0.2 ml/mouse/shot of physiological saline free of the compounds 1-5 was intraperitoneally injected to other groups of mice similarly as above.
# Based on the data of the average day surviving (T) in the Groups of mice with the compounds 1-5 and the average day surviving (C) in the control group of mice, the prolongation percentage of life (T/C %) was calculated by the formula 1. [formula]
# HLC-1 cell (lung cancer) = assay: Inhibition of tumor growth in nude mice, HLC-1; type: in vivo, human; set-up: Average tumor weight, on a wet cell basis: unit not given here; conditions: 0.05 μg/mouse s.c. twice a week
# [1] = system: HGC-27 cell (gastric cancer); assay: Inhibition of tumor growth in nude mice, HGC-27; type: in vivo, human; conditions: 0.05 μg/mouse s.c. twice a week
# [2] = system: Hep G2 cell (cancer of liver); assay: Inhibition of tumor growth in nude mice, Hep G2; type: in vivo, human; conditions: 0.05 μg/mouse s.c. twice a week
# [3] = system: HeLa cell (uterine cancer); assay: Inhibition of tumor growth in nude mice, HeLa; type: in vivo, human; conditions: 0.05 μg/mouse s.c. twice a week
# [4] = system: RPMI 4788 cell (colon cancer); assay: Inhibition of tumor growth in nude mice, RPMI 4788; type: in vivo, human; conditions: 0.05 μg/mouse s.c. twice a week
# [5] = system: WiDr cell (rectum cancer); assay: Inhibition of tumor growth in nude mice, WiDr; type: in vivo, human; conditions: 0.05 μg/mouse s.c. twice a week
# [6] = system: KB cell (rhinopharynx cancer); assay: Inhibition of tumor growth in nude mice, KB; type: in vivo, human; conditions: 0.05 μg/mouse s.c. twice a week
# [7] = system: Hep-2 cell (thyroid gland cancer); assay: Inhibition of tumor growth in nude mice, Hep-2; type: in vivo, human; conditions: 0.05 μg/mouse s.c. twice a week
# [8] = system: G-361 cell (malignant melanoma); assay: Inhibition of tumor growth in nude mice, G-361; type: in vivo, human; conditions: 0.05 μg/mouse s.c. twice a week
# HL-60 cell (leukemia) = assay: Inhibition of tumor growth in nude mice, HL-60; type: in vivo, human; conditions: 0.05 μg/mouse s.c. twice a week
# U-937 cell (lymphoma) = assay: Inhibition of tumor growth in nude mice, U-937; type: in vivo, human; conditions: 0.05 μg/mouse s.c. twice a week
# human malignant tumors [9] = assay: Antitumor activity by the inhibition of tumor growth, nude mice, summary over human tumors; type: in vivo; conditions: 0.05 μg s.c. twice a week
# Protocol: Based on the data of Experiment 2, a minimum dose of the compounds 1-5 to a nude mouse was estimated to be about 0.05 μg/mouse/shot, and the antitumor activity of the compounds 1-5 was tested by administering them at the above dose to nude mice transplanted with human malignant tumors.
# Thereafter mice, observed the tumor cells' insertion, were grouped in a group of 7 mice, then administered twice a week with 0.2 ml of a physiological saline containing 0.05 μg of the compound 2 to the dorsal subcutaneous tissues, and observed for 25 days. As a control, mice in other group were administered in the same administration schedule with 0.2 ml/shot of physiological saline free of the compound 2.
# On the 27th day after the transplantation, tumor masses formed in the nude mice were extracted and weighed, on a wet cell basis, according to the method as disclosed by Y. Shimosato and N. Tamaoki in "Jingan-to-Nude-mouse (Human Cancer and Nude Mice)", pp. 321-323 (1982), published by Ishiyaku Publishers, Inc., Tokyo, Japan, and the percentage surviving (%) on the 35th day after the transplantation was calculated.
# human malignant tumors [10] = conditions: Foods & Food Ingredients Journal of Japan, Vol.160 (1994); cited from earlier work
# [11] = 0.0005 μg/0.2 ml/mouse i.p. twice a week
# [12] = 0.005 μg/0.2 ml/mouse i.p. twice a week
# [13] = 0.05 μg/0.2 ml/mouse i.p. twice a week
# [14] = 0.05 μg/0.2 ml/mouse i.p. twice a week, all marked * (significant, 5% level or lower vs control)
# [15] = 0.5 μg/0.2 ml/mouse i.p. twice a week
# [16] = 0.5 μg/0.2 ml/mouse i.p. twice a week, all marked * (significant, 5% level or lower vs control)
smiles,measurement,setting,value
"CC(C)=CCc1cc(/C=C/C(=O)O)cc(CC=C(C)C)c1O [compound 3, calcium salt of 3-[4-hydroxy-3,5-bis(3-methyl-2-butenyl)phenyl]-2-propenoic acid]",Average day surviving,Meth A sarcoma; [11],31.1 ± 0.6 days
same,Prolongation percentage of life (T/C %),Meth A sarcoma; [11],110.7%
same,Number surviving after 40 days,Meth A sarcoma; [11],2
same,Average day surviving,Meth A sarcoma; [12],35.9 ± 0.3 days
same,Prolongation percentage of life (T/C %),Meth A sarcoma; [12],127.8%
same,Number surviving after 40 days,Meth A sarcoma; [12],6
same,Average day surviving,Meth A sarcoma; [13],38.9 ± 0.2 days
same,Prolongation percentage of life (T/C %),Meth A sarcoma; [14],138.4%
same,Number surviving after 40 days,Meth A sarcoma; [13],8
same,Average day surviving,Meth A sarcoma; [15],39.0 ± 0.2 days
same,Prolongation percentage of life (T/C %),Meth A sarcoma; [16],138.8%
same,Number surviving after 40 days,Meth A sarcoma; [15],9
"CC(C)=CCc1cc(/C=C/C(=O)O)cc(CC=C(C)C)c1O [compound 2, sodium salt of 3-[4-hydroxy-3,5-bis(3-methyl-2-butenyl)phenyl]-2-propenoic acid]",Average day surviving,Meth A sarcoma; [11],32.3 ± 0.8 days
same,Prolongation percentage of life (T/C %),Meth A sarcoma; [11],114.9%
same,Number surviving after 40 days,Meth A sarcoma; [11],2
same,Average day surviving,Meth A sarcoma; [12],36.5 ± 0.5 days
same,Prolongation percentage of life (T/C %),Meth A sarcoma; [12],129.9%
same,Number surviving after 40 days,Meth A sarcoma; [12],6
same,Average day surviving,Meth A sarcoma; [13],38.1 ± 0.1 days
same,Prolongation percentage of life (T/C %),Meth A sarcoma; [14],135.6%
same,Number surviving after 40 days,Meth A sarcoma; [13],8
same,Average day surviving,Meth A sarcoma; [15],> 40.0 days
same,Prolongation percentage of life (T/C %),Meth A sarcoma; [16],142.3%
same,Number surviving after 40 days,Meth A sarcoma; [15],10
same,"Average tumor weight, on a wet cell basis","HLC-1 cell (lung cancer); 27th day after transplantation, control 1.25 ± 0.81",0.124 ± 0.06
same,Percentage surviving at judgement (%),"HLC-1 cell (lung cancer); 35th day, control 71.4",100%
same,"Average tumor weight, on a wet cell basis","[1]; 27th day after transplantation, control 1.86 ± 0.64, in g (unit assumed)",0.35 ± 0.09
same,Percentage surviving at judgement (%),"[1]; 35th day, control 85.7",100%
same,"Average tumor weight, on a wet cell basis","[2]; 27th day after transplantation, control 2.06 ± 0.85, in g (unit assumed)",0.18 ± 0.02
same,Percentage surviving at judgement (%),"[2]; 35th day, control 42.8",100%
same,"Average tumor weight, on a wet cell basis","[3]; 27th day after transplantation, control 1.36 ± 0.61, in g (unit assumed)",0.54 ± 0.06
same,Percentage surviving at judgement (%),"[3]; 35th day, control 100",100%
same,"Average tumor weight, on a wet cell basis","[4]; 27th day after transplantation, control 2.95 ± 1.36, in g (unit assumed)",0.21 ± 0.03
same,Percentage surviving at judgement (%),"[4]; 35th day, control 71.4",100%
same,"Average tumor weight, on a wet cell basis","[5]; 27th day after transplantation, control 1.83 ± 0.85, in g (unit assumed)",0.36 ± 0.02
same,Percentage surviving at judgement (%),"[5]; 35th day, control 85.7",100%
same,"Average tumor weight, on a wet cell basis","[6]; 27th day after transplantation, control 2.12 ± 0.96, in g (unit assumed)",0.54 ± 0.03
same,Percentage surviving at judgement (%),"[6]; 35th day, control 42.8",100%
same,"Average tumor weight, on a wet cell basis","[7]; 27th day after transplantation, control 2.16 ± 1.31, in g (unit assumed)",0.81 ± 0.65
same,Percentage surviving at judgement (%),"[7]; 35th day, control 42.8",100%
same,"Average tumor weight, on a wet cell basis","[8]; 27th day after transplantation, control 1.96 ± 0.98, in g (unit assumed)",0.36 ± 0.02
same,Percentage surviving at judgement (%),"[8]; 35th day, control 57.1",100%
same,"Average tumor weight, on a wet cell basis","HL-60 cell (leukemia); 27th day after transplantation, control 1.43 ± 0.08, in g (unit assumed)",0.18 ± 0.03
same,Percentage surviving at judgement (%),"HL-60 cell (leukemia); 35th day, control 100",100%
same,"Average tumor weight, on a wet cell basis","U-937 cell (lymphoma); 27th day after transplantation, control 0.99 ± 0.81, in g (unit assumed)",0.25 ± 0.02
same,Percentage surviving at judgement (%),"U-937 cell (lymphoma); 35th day, control 85.7",100%
same,antitumor effect on human malignant tumors,human malignant tumors [9],strong antitumor effect
same,percentage surviving on the 35th day after the transplantation,human malignant tumors [9],attained a desired percentage surviving
"CC(C)=CCc1cc(/C=C/C(=O)O)cc(CC=C(C)C)c1O [compound 4, magnesium salt of 3-[4-hydroxy-3,5-bis(3-methyl-2-butenyl)phenyl]-2-propenoic acid]",Average day surviving,Meth A sarcoma; [11],34.9 ± 0.3 days
same,Prolongation percentage of life (T/C %),Meth A sarcoma; [11],124.2%
same,Number surviving after 40 days,Meth A sarcoma; [11],3
same,Average day surviving,Meth A sarcoma; [12],35.7 ± 0.4 days
same,Prolongation percentage of life (T/C %),Meth A sarcoma; [12],127.0%
same,Number surviving after 40 days,Meth A sarcoma; [12],5
same,Average day surviving,Meth A sarcoma; [13],37.5 ± 0.2 days
same,Prolongation percentage of life (T/C %),Meth A sarcoma; [14],133.5%
same,Number surviving after 40 days,Meth A sarcoma; [13],7
same,Average day surviving,Meth A sarcoma; [15],> 40.0 days
same,Prolongation percentage of life (T/C %),Meth A sarcoma; [16],142.3%
same,Number surviving after 40 days,Meth A sarcoma; [15],10
O=c1c(O)c(-c2ccc(O)c(O)c2)oc2cc(O)cc(O)c12 [quercetin],antitumor activity on human malignant tumors,human malignant tumors [10],exerted an antitumor activity
O=C(/C=C/c1ccc(O)c(O)c1)OCCc1ccccc1 [caffeic acid phenethyl ester],antitumor activity on human malignant tumors,human malignant tumors [10],exerted an antitumor activity
"CC(C)=CCc1cc(/C=C/C(=O)O)cc(CC=C(C)C)c1O [compound 1, 3-[4-hydroxy-3,5-bis(3-methyl-2-butenyl)phenyl]-2-propenoic acid]",Average day surviving,Meth A sarcoma; [11],33.5 ± 0.6 days
same,Prolongation percentage of life (T/C %),Meth A sarcoma; [11],119.2%
same,Number surviving after 40 days,Meth A sarcoma; [11],3
same,Average day surviving,Meth A sarcoma; [12],35.0 ± 0.9 days
same,Prolongation percentage of life (T/C %),Meth A sarcoma; [12],124.6%
same,Number surviving after 40 days,Meth A sarcoma; [12],5
same,Average day surviving,Meth A sarcoma; [13],37.3 ± 0.4 days
same,Prolongation percentage of life (T/C %),Meth A sarcoma; [14],132.7%
same,Number surviving after 40 days,Meth A sarcoma; [13],7
same,Average day surviving,Meth A sarcoma; [15],39.8 ± 0.1 days
same,Prolongation percentage of life (T/C %),Meth A sarcoma; [16],141.6%
same,Number surviving after 40 days,Meth A sarcoma; [15],9
"CC(C)=CCc1cc(/C=C/C(=O)O)cc(CC=C(C)C)c1O [compound 5, potassium salt of 3-[4-hydroxy-3,5-bis(3-methyl-2-butenyl)phenyl]-2-propenoic acid]",Average day surviving,Meth A sarcoma; [11],32.6 ± 0.6 days
same,Prolongation percentage of life (T/C %),Meth A sarcoma; [11],116.0%
same,Number surviving after 40 days,Meth A sarcoma; [11],2
same,Average day surviving,Meth A sarcoma; [12],36.1 ± 0.5 days
same,Prolongation percentage of life (T/C %),Meth A sarcoma; [12],128.5%
same,Number surviving after 40 days,Meth A sarcoma; [12],6
same,Average day surviving,Meth A sarcoma; [13],38.2 ± 0.4 days
same,Prolongation percentage of life (T/C %),Meth A sarcoma; [14],135.9%
same,Number surviving after 40 days,Meth A sarcoma; [13],8
same,Average day surviving,Meth A sarcoma; [15],39.2 ± 0.3 days
same,Prolongation percentage of life (T/C %),Meth A sarcoma; [16],139.5%
same,Number surviving after 40 days,Meth A sarcoma; [15],9
